The source of these data is patent US9861624B2, “Method of treating cancer” (Exelixis, Inc., priority 2012, dated 2018).

The subject of experiment [1] is murine pancreatic neuroendocrine tumor model. Put plainly: Murine pancreatic neuroendocrine tumor model. The following applies: mouse, in vivo.
Experiment [2] deals with CRPC patients with evidence of bone metastases. Put plainly: Adaptive phase 2 trial (NCT00940225), case studies of the first three CRPC patients with bone metastases. It is filed as in vivo, human. The settings on record: for PSA / serum tALP levels: Week 18. The method, then: In 2000, local disease recurrence was treated with radiation therapy. […] CAB with leuprolide and bicalutamide was initiated. […] All patients provided informed consent before study screening.

Another experiment has as its system xenograft tumor models. Put plainly: Xenograft tumor models. The following applies: in vivo.

The structures appear in SMILES notation.

Regarding `COc1cc2nccc(Oc3ccc(NC(=O)C4(C(=O)Nc5ccc(F)cc5)CC4)cc3)c2cc1OC` [Compound 1, N-(4-{[6,7-bis(methyloxy)quinolin-4-yl]oxy}phenyl)-N′-(4-fluorophenyl)cyclopropane-1,1-dicarboxamide], the overall survival result in experiment [1] is reported as “substantially improves”. Moreover, the “tumor invasiveness and metastasis” value in experiment [1] was “significantly reduces”. The molecule also had an increase in hemoglobin in experiment [2] (Patient 1, Week 2 compared with baseline) of 1.4 g/dL. The “radiotracer uptake by bone metastases on bone scan” value in experiment [2] (Patient 1, Week 6) is listed as “dramatic decrease”. Also, the bone lesions entry is recorded as “near complete resolution” in experiment [2] (Patient 1, Week 12) and “near complete resolution” in experiment [2] (three metastatic CRPC patients, summary). Besides, the PSA is recorded as 93.5 ng/mL in experiment [2] (Patient 1, 430 ng/mL at baseline); 2 fold of baseline in experiment [2] (Patient 2, subsequent to crossing over to Compound 1 from placebo); 1.2 ng/mL in experiment [2] (Patient 3, 2.4 ng/mL at screening). Also, the “serum tALP levels” value in experiment [2] (Patient 1, 689 U/L at baseline) was 159 U/L; in experiment [2] (Patient 3, 869 U/L at baseline), 197 U/L. Also, the bone pain result in experiment [2] (Patient 1, four weeks after start) is “significant reduction”; in experiment [2] (Patient 2, Week 4), “reduction”. The “radiotracer uptake by bone lesions on bone scan” value in experiment [2] (Patient 2, Week 6) is recorded as “slight flair”. The radiotracer uptake result in experiment [2] (Patient 2, Week 12) was “substantial reduction”. Also, the hemoglobin increase in experiment [2] (Patient 2, Week 12 compared with baseline) is 1.8 g/dL; in experiment [2] (Patient 3, Week 2 compared with baseline) it was 2.2 g/dL. In addition, the PSA peak in experiment [2] (Patient 2, Week 16, after placebo Week 12 to 15, crossed over to Compound 1 at Week 15) is ~6 fold of baseline. In addition, the “radiotracer uptake on bone scan” value in experiment [2] (Patient 3, Week 6) was “dramatic reduction”. Moreover, in experiment [2] (Patient 3, Week 12), the “bone lesions on bone scan” value is “complete resolution”. Also, in experiment [2] (Patient 3, after three weeks), the pain result was “complete resolution”. Besides, in experiment [2] (all three patients, summary), the “uptake of radiotracer on bone scan” value is “striking decrease”. In the experiment on xenograft tumor models, the “effect on tumors in xenograft tumor models” value was “tumor regression”.
